What all share (format): in vivo
The test system of experiment [1] is B epitope SEQ ID NO: 43. Put plainly: Antibody titer in serum of immunized mice, indirect ELISA. The conditions noted are these: FIG. 23; compared with the B epitope SEQ ID NO: 43 group and the B epitope SEQ ID NO: 43-PADRE group; mice immunized subcutaneously, 50 μg, Freund's adjuvant. As to the method:
(§1) The protocol is as follows: • (1) The helper epitope was connected to individual antigens or antigen epitope with the linking peptide to construct multiple fusion antigens. The sequence of the linking peptide is GPSL (i.e. Gly-Pro-Ser-Leu) (SEQ ID NO:51). • (2) The fusion antigens from (1) were emulsified adequately with complete Freund's adjuvant of the same volume. Then to immunize mice via subcutaneous injection with the emulsion at the dose of 50 μg per mouse. The strains of experimental mice including C57, Fvb and Balb/C. After 7 days and 14 days of first immunization, the fusion antigens from (1) were emulsified adequately with incomplete Freund's adjuvant of the same volume and then to immunize mice via subcutaneous injection with the emulsion at the dose of 50 μg per mouse. • (3) There are two detection methods. […] Then the antibody titer is detected by indirect ELISA. […] PBMC (peripheral blood mononuclear cells) are isolated, and the CTL-mediated cytotoxicity is detected by LDH (lactate dehydrogenase) kit. […]
(§2) Method 1: The whole blood was collected every week after immunization and centrifugated at 6000 rpm for 20 min to obtain the serum for a total of 4 weeks. Antibody titers were detected by indirect ELISA as follows: • (1) Coating: the existing antigen or antigen epitope was diluted to 5 μg/mL with coating solution. […]
On the technique in general: An ELISA detects its analyte on a solid surface through an enzyme-linked reagent.

Experiment [2] concerns Aβ protein-42. The experiment is described as above. The conditions noted are these: FIG. 24; compared with the Aβ protein-42 group and the Aβ protein-PADRE group; mice immunized subcutaneously, 50 μg, Freund's adjuvant. On the procedure: as §1, §2
In experiment [3] the test system is target cells. Put plainly: CTL-mediated cytotoxicity of PBMC from spleen of immunized mice, LDH kit. To be noted: one week after last immunization. As to the method: The protocol is as follows: • (1) The helper epitope was connected to individual antigens or antigen epitope with the linking peptide to construct multiple fusion antigens. The sequence of the linking peptide is GPSL (i.e. Gly-Pro-Ser-Leu) (SEQ ID NO:51). • (2) The fusion antigens from (1) were emulsified adequately with complete Freund's adjuvant of the same volume. Then to immunize mice via subcutaneous injection with the emulsion at the dose of 50 μg per mouse. The strains of experimental mice including C57, Fvb and Balb/C. After 7 days and 14 days of first immunization, the fusion antigens from (1) were emulsified adequately with incomplete Freund's adjuvant of the same volume and then to immunize mice via subcutaneous injection with the emulsion at the dose of 50 μg per mouse. • (3) There are two detection methods. One is to obtain the orbital blood of immunized mice on 7, 14, 21 and 28 day respectively, centrifuge the whole blood to get the serum. Then the antibody titer is detected by indirect ELISA. The other one is: one week after the last immunization, the mice are killed to get the spleen. PBMC (peripheral blood mononuclear cells) are isolated, and the CTL-mediated cytotoxicity is detected by LDH (lactate dehydrogenase) kit.
The first step was to construct the fusion antigen. […]
Method 2: one week after last immunization, mice were sacrificed, and spleen was taken; then PBMC (peripheral blood mononuclear cells) were isolated, and the CTL-mediated cytotoxicity was detected by LDH (lactate dehydrogenase) kit. • (1) Setting control: The control group was divided into effector cell spontaneous release group, experimental group, target cell spontaneous release group, target cell maximum release group, volume correction control group and background control group; • (2) The cells were centrifuged at 250 g for 4 minutes to make the effector cells fully contact with the target cells; • (3) The detection plate was incubated with 5% CO2 at 37° C. for 4 hours; 10 μL of Lysis buffer was added to every 100 μL medium (10×) in the target cell maximum release group. […]

Drawing on patent US12226476B2, “Helper epitope peptide and application thereof” (CHINA PHARMACEUTICAL UNIVERSITY, priority 2018, dated 2025), this text covers antibody titers and CTL-mediated cytotoxicity for 5 sequences.

Non-standard residues stand in square brackets, D forms with d. No end group written: not given here. Phe(4-NO2) = N[C@@H](Cc1ccc([N+](=O)[O-])cc1)C(=O)O

“FLPESFDGDPASNTAPLQPEGPSLAKFXAAWTLKAAA (FLPESFDGDPASNTAPLQPEGPSLAKF[Phe(4-NO2)]AAWTLKAAA) [B epitope+3 pPhe-PADRE]”: the antibody titers result in experiment [1] was “significant increase”.

As to “LVFFAEDVGSNKGAIIGLMVGGVVIAGPSLAKFVAXWTLKAAA (LVFFAEDVGSNKGAIIGLMVGGVVIAGPSLAKFVA[Phe(4-NO2)]WTLKAAA) [A-beta protein-6pPhe-PADRE]”, the antibody titers result in experiment [2] is reported as “significant increase”.

Turning to “TGYLYISAGPSLAXFVAAWTLKAAA (TGYLYISAGPSLA[Phe(4-NO2)]FVAAWTLKAAA) [epitope 2+2p-PADRE]”, in experiment [3] (FIG. 21, compared with the epitope SEQ ID NO:41 group and the epitope SEQ ID NO: 41-PADre group), the CTL-mediated cytotoxicity entry is “significantly enhanced”.

As for “VLDNGDPLGPSLTGYLYISAGPSLAKXVAAWTLKAAA (VLDNGDPLGPSLTGYLYISAGPSLAK[Phe(4-NO2)]VAAWTLKAAA) [epitope 3+3p-PADRE]”, the CTL-mediated cytotoxicity entry in experiment [3] (FIG. 22, compared with the epitope SEQ ID NO:42 group and the epitope SEQ ID NO: 42-PADre group) was “significantly enhanced”.

Consider “VLDNGDPLGPSLXKFVAAWTLKAAA (VLDNGDPLGPSL[Phe(4-NO2)]KFVAAWTLKAAA) [epitope 1+1p-PADRE]”, for which the CTL-mediated cytotoxicity result in experiment [3] (FIG. 20, compared with the epitope SEQ ID NO:40 group and the epitope SEQ ID NO: 40-PADre group) was “significantly enhanced”.
